Measured values as given in US20210255193A1, “LYSINE REACTIVE PROBES AND USES THEREOF” (The Scripps Research Institute, priority 2017, published 2021).
Blank lines part the entries; values can stand above or below the molecule they belong to.

Assays:
Assay in all cases: competitive isoTOP-ABPP
Assay type in all cases: binding
[1] = target: T1, SOD2 Superoxide dismutase (Homo sapiens, UniProt P04179); conditions: for isoTOP-ABPP reactivity ratio at lysine P04179_K68: 231 sol
T1 construct: isoTOP-ABPP experiments performed in cell lysates (in vitro); endogenous in cells; host or cells: MDA-MB-231 soluble lysate
T1 sequence (P04179 25-222): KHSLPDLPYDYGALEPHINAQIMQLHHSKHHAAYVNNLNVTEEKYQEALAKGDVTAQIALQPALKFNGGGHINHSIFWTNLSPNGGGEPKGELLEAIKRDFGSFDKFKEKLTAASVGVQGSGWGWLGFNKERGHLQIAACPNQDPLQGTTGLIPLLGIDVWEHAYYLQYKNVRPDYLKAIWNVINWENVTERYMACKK
Outline: (§1)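 Lysate + fragment (50 μM activated ester / 100 μM guanidinylating agent) or DMSO → 0.1 mM STP-alkyne, 1 h, RT → CuAAC to TEV tags (compound light, DMSO heavy) → LC-MS. R = heavy/light MS1 area; liganded lysine if R≥4.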

[2] = target: T2, NT5DC1 5-nucleotidase domain-containing protein 1 (Homo sapiens, UniProt Q5TFE4); conditions: for isoTOP-ABPP ratio, lysine Q5TFE4_K123: 100 uM_231_sol_in vitro
T2 construct: isoTOP-ABPP experiments performed in cell lysates (in vitro); endogenous in cells; host or cells: soluble proteome of human cancer cell lines (MDA-MB-231; Ramos and Jurkat also prepared)
T2 sequence (Q5TFE4 1-455): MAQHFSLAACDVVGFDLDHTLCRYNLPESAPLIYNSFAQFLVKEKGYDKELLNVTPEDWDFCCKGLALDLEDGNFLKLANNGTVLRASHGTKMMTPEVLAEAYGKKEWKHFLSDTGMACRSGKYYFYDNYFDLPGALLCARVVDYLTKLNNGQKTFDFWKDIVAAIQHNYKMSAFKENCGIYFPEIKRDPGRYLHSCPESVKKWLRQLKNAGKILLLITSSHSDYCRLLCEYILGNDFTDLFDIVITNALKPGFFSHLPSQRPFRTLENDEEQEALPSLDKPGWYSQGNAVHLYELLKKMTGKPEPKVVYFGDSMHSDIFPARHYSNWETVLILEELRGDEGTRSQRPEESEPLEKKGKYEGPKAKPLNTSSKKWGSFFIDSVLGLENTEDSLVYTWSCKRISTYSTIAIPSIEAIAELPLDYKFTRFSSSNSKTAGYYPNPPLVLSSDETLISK
Outline: as §1

[3] = target: T3, CDK2 Cyclin-dependent kinase 2 (Homo sapiens, UniProt P24941); conditions: for isoTOP-ABPP ratio (R) at liganded lysine P24941_K33: sol, 231
T3 construct: isoTOP-ABPP experiments performed in cell lysates (in vitro); endogenous in cells; host or cells: soluble proteome of human cancer cell lines (MDA-MB-231; Ramos and Jurkat also prepared)
Outline: as §1

[4] = target: T4, IFIT3 Interferon-induced protein with tetratricopeptide (Homo sapiens, UniProt O14879)
T4 construct: isoTOP-ABPP experiments performed in cell lysates (in vitro); endogenous in cells; host or cells: MDA-MB-231 soluble lysate
T4 sequence (O14879 1-490): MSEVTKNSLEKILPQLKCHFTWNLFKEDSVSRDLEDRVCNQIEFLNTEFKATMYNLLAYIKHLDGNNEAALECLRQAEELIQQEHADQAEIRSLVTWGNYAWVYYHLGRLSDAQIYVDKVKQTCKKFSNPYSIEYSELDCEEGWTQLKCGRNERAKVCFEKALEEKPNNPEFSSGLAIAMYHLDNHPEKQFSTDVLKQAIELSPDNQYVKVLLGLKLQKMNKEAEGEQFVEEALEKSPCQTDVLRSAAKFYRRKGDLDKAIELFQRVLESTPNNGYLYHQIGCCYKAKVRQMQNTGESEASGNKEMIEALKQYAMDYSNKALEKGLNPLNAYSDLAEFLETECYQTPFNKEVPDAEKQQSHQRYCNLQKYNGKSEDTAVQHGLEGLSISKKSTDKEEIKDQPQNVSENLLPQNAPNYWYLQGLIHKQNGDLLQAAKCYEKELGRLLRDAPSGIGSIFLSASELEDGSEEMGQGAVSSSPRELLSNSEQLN
Outline: as §1

Compound: Cn1cc(CC(=O)Oc2ccc([N+](=O)[O-])cc2[N+](=O)[O-])c2ccccc21 [fragment 32, 2,4-Dinitrophenyl 2-(1-methyl-1H-indol-3-yl)acetate]
isoTOP-ABPP reactivity ratio at lysine P04179_K68 ([1]; 50 uM, in vitro): 1.1

Compound: O=C(CCc1cn(-c2ccccc2)nc1-c1ccccc1)Oc1ccc([N+](=O)[O-])cc1[N+](=O)[O-] [fragment 29, 2,4-Dinitrophenyl 3-(1,3-diphenyl-1H-pyrazol-4-yl)propanoate]
isoTOP-ABPP reactivity ratio at lysine Q5TFE4_K123 ([2]; 50 uM, 231 sol, in vitro): 1.2
isoTOP-ABPP reactivity ratio at lysine P24941_K33 ([3]; 50 uM, 231 sol, in vitro): 0.9
isoTOP-ABPP reactivity ratio at lysine O14879_K148 ([4]; 50 uM, 231 sol, in vitro): 4.1

Compound: NC(=O)c1cc(C(F)(F)F)cc(C(F)(F)F)c1 [fragment 51, reference compound]
isoTOP-ABPP ratio, lysine P04179_K68 ([1]; 50 uM_231_sol_in vitro): 0.9

Compound: N#Cc1ccc(C(=O)Oc2ccc([N+](=O)[O-])cc2[N+](=O)[O-])cc1 [fragment 44, 2,4-Dinitrophenyl 4-cyanobenzoate]
isoTOP-ABPP ratio, lysine P24941_K33 ([3]; 50 uM_231_sol_in vitro): 1.1
isoTOP-ABPP ratio, lysine P04179_K68 ([1]; 50 uM_231_sol_in vitro): 1.6
isoTOP-ABPP ratio, lysine O14879_K148 ([4]; 50 uM_231_sol_in vitro): 2.2

Compound: O=C(Oc1ccc([N+](=O)[O-])cc1[N+](=O)[O-])C1CCN(C(=O)OCc2ccccc2)CC1 [fragment 34, 1-Benzyl 4-(2,4-dinitrophenyl) piperidine-1,4-dicarboxylate]
isoTOP-ABPP ratio (R) at liganded lysine P24941_K33 ([3]; 50 uM, in vitro): 1.0

Compound: O=C(CC12CC3CC(CC(C3)C1)C2)Oc1ccc([N+](=O)[O-])cc1[N+](=O)[O-] [fragment 38, 2,4-Dinitrophenyl 2-(adamantan-1-yl)acetate]
isoTOP-ABPP ratio (R) at liganded lysine P24941_K33 ([3]; 50 uM, in vitro): 0.9

Compound: O=C(CCc1coc2cc(F)ccc2c1=O)Oc1ccc([N+](=O)[O-])cc1[N+](=O)[O-] [fragment 36, 2,4-Dinitrophenyl 3-(7-fluoro-4-oxo-4H-chromen-3-yl)propanoate]
isoTOP-ABPP ratio (R) at liganded lysine Q5TFE4_K123 ([2]; 50 uM, in vitro, sol, 231): 20.0
isoTOP-ABPP ratio (R) at liganded lysine P04179_K68 ([1]; 50 uM, in vitro, sol, 231): 2.1
isoTOP-ABPP ratio (R) at liganded lysine O14879_K148 ([4]; 50 uM, in vitro, sol, 231): 3.4

Compound: O=C(Oc1c(F)c(F)cc(F)c1F)c1cc(C(F)(F)F)cc(C(F)(F)F)c1 [fragment 48, 2,3,5,6-Tetrafluorophenyl 3,5-bis(trifluoromethyl)benzoate]
isoTOP-ABPP ratio, lysine O14879_K148 ([4]; 50 uM_231_sol_in vitro): 0.7

Other lines, results leading:

isoTOP-ABPP reactivity ratio at lysine Q5TFE4_K123 ([2]; 50 uM, 231 sol, in vitro): 1.1
isoTOP-ABPP reactivity ratio at lysine O14879_K148 ([4]; 50 uM, 231 sol, in vitro): 1.3
Compound: O=C(Oc1c(F)c(F)c(F)c(F)c1F)C1CCN(C(=O)OCc2ccccc2)CC1 [fragment 24, 1-Benzyl 4-(pentafluorophenyl) piperidine-1,4-dicarboxylate]

isoTOP-ABPP reactivity ratio at lysine P04179_K68 ([1]; 50 uM, in vitro): 1.2
isoTOP-ABPP reactivity ratio at lysine O14879_K148 ([4]; 50 uM, 231 sol, in vitro): 1.4
Compound: O=C(CCc1coc2cc(F)ccc2c1=O)Oc1c(F)c(F)c(F)c(F)c1F [fragment 26, Pentafluorophenyl 3-(7-fluoro-4-oxo-4H-chromen-3-yl)propanoate]

isoTOP-ABPP ratio, lysine Q5TFE4_K123 [2]: 1.1
isoTOP-ABPP ratio, lysine P24941_K33 ([3]; 100 uM_231_sol_in vitro): 2.3
isoTOP-ABPP ratio, lysine O14879_K148 ([4]; 100 uM_231_sol_in vitro): 1.4
Compound: CC(C)(C)OC(=O)N=C(NC(=O)OC(C)(C)C)n1cccn1 [fragment 50, reference compound]

isoTOP-ABPP ratio, lysine Q5TFE4_K123 [2]: 1.3
isoTOP-ABPP ratio, lysine P04179_K68 ([1]; 100 uM_231_sol_in vitro): 3.3
Compound: COC(=O)NC(=NC(=O)OCC1c2ccccc2-c2ccccc21)n1cccn1 [fragment 49, N-Methoxycarbonyl-N′-9-fluorenylmethoxycarbonyl-pyrazole-1-carboxamidine]

isoTOP-ABPP reactivity ratio at lysine Q5TFE4_K123 ([2]; 50 uM, 231 sol, in vitro): 1.2
isoTOP-ABPP reactivity ratio at lysine P04179_K68 ([1]; 50 uM, in vitro): 0.8
isoTOP-ABPP reactivity ratio at lysine O14879_K148 ([4]; 50 uM, 231 sol, in vitro): 1.0
Compound: CCn1cc(C(=O)Oc2c(F)c(F)c(F)c(F)c2F)c(=O)c2ccc(C)nc21 [fragment 28, Pentafluorophenyl 1-ethyl-7-methyl-4-oxo-1,4-dihydro-1,8-naphthyridine-3-carboxylate]

R value (DMSO/fragment) for probe 1 labeling ([2]; Q5TFE4_K123, 50 uM, 231 sol, in vitro): 20.0
R value (DMSO/fragment) for probe 1 labeling ([4]; O14879_K148, 50 uM, 231 sol, in vitro): 0.9
Compound: O=C(CCc1cn(-c2ccccc2)nc1-c1ccccc1)Oc1c(F)c(F)c(F)c(F)c1F [fragment 19, Pentafluorophenyl 3-(1,3-diphenyl-1H-pyrazol-4-yl)propanoate]
